Measured values published in patent US20240041898A9, “NEUROSTEROIDS AND ENANTIOMERS THEREOF FOR THE PREVENTION AND TREATMENT OF NEURODEGENERATIVE CONDITIONS” (priority 2019, published 2024).
“And” between values parts separate entries of the source, which are not always exact repeats. Equal values may be shown once.

Columns and labels:
[1] = system: retinal ganglion cells (RGCs); assay: Rat in vivo OHT model, NeuN-positive RGC survival in whole mount retina; details: OHT eyes, intravitreal, three weeks after microbead injection; single values
Method: (§1) Example 7. Rat in vivo OHT model induced by intracameral injection of microbeads—For induction of ocular hypertension (OHT) in vivo, sterile 6 μm polystyrene microbeads were injected into the anterior chamber of the left eye of each animal using a single-step, sclero-corneal tunnel approach with a 35G nanoneedle (FIG. 4A). […] After stabilization of elevated IOP, animals were randomly divided into 3 groups (non-treated OHT, AlloP injection, and ent-AlloP injection). AlloP and ent-AlloP were administered as a one-time intravitreal injection one week following bead injection. Non-treated OHT animals received sterile vehicle intravitreally. As a further control, vehicle was intravitreally injected 7 days after intracameral administration of 10 μl of PBS. Three weeks after bead injections, IOP was 26.7±3.7 mmHg in non-treated OHT eyes compared to 9.9±0.9 mmHg in control eyes. […]

p62 = assay: Rat in vivo OHT model, Western blot of p62; details: in vivo OHT eyes, 3 weeks after microbead injection; relative units, control = 1.00; single values
Method: as §1

[2] = system: mouse model of Niemann-Pick Type C disease; details: cited from earlier work
[3] = system: primary astrocyte cultures; details: cited from earlier work

SMILES | RGC Survival (FIG. 4N), number of NeuN-positive cells, individual 1-5 [1] | p62 expression (FIG. 6D), individual experiments 1-4 (p62) | autophagy [2] | autophagy [3]
CC(=O)[C@H]1CC[C@H]2[C@@H]3CC[C@H]4C[C@H](O)CC[C@]4(C)[C@H]3CC[C@]12C [AlloP, allopregnanolone] | 2200 per square millimeter and 2240 per square millimeter and 1940 per square millimeter and 1860 per square millimeter and 1800 per square millimeter | 1.73 and 1.82 and 2.90 and 2.53 | activate autophagy | activate autophagy
CC(=O)[C@@H]1CC[C@@H]2[C@H]3CC[C@@H]4C[C@@H](O)CC[C@@]4(C)[C@@H]3CC[C@]21C [ent-AlloP, ent-allopregnanolone] | 2060 per square millimeter and 2260 per square millimeter and 2500 per square millimeter and 2200 per square millimeter and 2460 per square millimeter | 0.92 and 0.91 and 1.00 and 1.61 |  | 
